Row | Structure (SMILES) | melting point [°C]
1 | O=C(Nc1ccc(Oc2ccnc(N3CCCC(O)C3)n2)c2ccccc12)c1cc(F)cc(N2CCOCC2)c1 (configuration not stated) | 180 to 181
2 | COC1CN(CCC(C(=O)N(C)C)(c2ccccc2)c2ccccc2)CCC1NC(=O)c1ccccc1 (configuration not stated) | 147
3 | CC(=O)Oc1c(C2CCN(CCCCNC(=O)c3ccc(NC(=O)c4ccc(Cl)cc4)cc3)CC2)ccc2ccccc12 | 240
4 | CC1=NC(NC(=O)Nc2cccc(C)c2)C(=O)N(CC(=O)C2CCCC2)c2c(C)cccc21 (configuration not stated) | 150 to 156
5 | CC(C)(C)c1ccc(C(=O)C(Cl)Cl)cc1 | 47 to 49
6 | CCCCCCCCCCCCC(C(=O)O)S(=O)(=O)c1ccc(OC)cc1 (configuration not stated) | 82
7 | Nc1ncc(I)c(N)n1 | 212 to 214
8 | O=C(NO)c1cnc(N2CCN(S(=O)(=O)c3ccc(C(=O)Nc4ccc(Cl)c(-c5ccccn5)c4)cc3Cl)CC2)nc1 | 159
9 | N#Cc1ccccc1OC1SCC(O)C(O)C1O (configuration not stated) | 130 to 132
10 | CCCCCCCCCCOC(=O)CS(=O)(=O)Nc1c(C(C)C)cccc1C(C)C | 65 to 67
11 | S=P12SP3(=S)SP(=S)(S1)SP(=S)(S2)S3 | 165 to 166
12 | CCOC(=O)c1c(C)nn(C)c1SCc1ccccc1 | 55 to 56
13 | CCC1(CCCCN2CC=C(c3ccc(Cl)cc3)CC2)C(=O)Nc2ccccc21 (configuration not stated) | 142 to 145
14 | Oc1ccc2c(c1CNc1ccc(F)cc1F)CCCO2 | 120 to 121
15 | CN(Cc1cc[nH]n1)C1CCCN(C(=O)c2ccc(Nc3nccc(Nc4ccc(F)cc4)n3)cc2)C1 (configuration not stated) | 120 to 140
16 | CC(C)N(CCC(c1ccccc1)c1cc(CO)ccc1OCc1ccccc1)C(C)C (configuration not stated) | 86.4
17 | CC(=O)N1CCN(C(=O)c2nc(-c3ccccc3)c(-c3ccc(=O)n(C(C)C)n3)s2)CC1 | 78 to 82
18 | Cn1c(C(F)(F)F)cc(=O)n(-c2ncc(Cl)cc2F)c1=O | 133 to 134
19 | C=C(C)CC1(OC=C(C)C)CC=C(C)C(NC=O)=C1C (configuration not stated) | 109
20 | CC(C)c1cc2ncnn2nc1OCCOCCN1CCN(C(c2ccccc2)c2ccccc2)CC1 | 119 to 120

Row | Structure (SMILES) | melting point [°C]
21 | CCOc1nccc(C(=O)OC)c1N | 59 to 60.5
22 | CC(CCC(=O)c1ccccc1)C1CC=C2C3=C(CCC21C)C1(C)CCC(O)C(C)(C)C1CC3 (configuration not stated) | 196 to 199
23 | CC(=O)Nc1cc(Br)ccc1C(=O)O | 220
24 | O=C(NCCCn1ccnc1)c1[nH]c2ccc(Cl)cc2c1S(=O)(=O)c1ccccc1 | 216 to 218
25 | CNC(=O)C1CN(C(c2ccccc2)c2ccccc2)C1 | 103 to 107
26 | Cc1c(CCCCCCCC(=O)O)cccc1C(=O)c1ccc(Cl)cc1 | 70
27 | COC(=O)c1c(C(F)(F)C(F)(F)F)[nH]c(C(F)(F)C(F)(F)F)c1C(=O)OC | 68 to 71
28 | COC(=O)c1ncc(C(=O)O)c2ccccc12 | 189
29 | COc1ccc2c(c1Cl)c(CC(=O)O)c(C)n2C(=O)c1ccc(Cl)s1 | 169
30 | O=C(O)c1cccc2c1CCc1ccc(F)cc1S2 | 209 to 211
31 | COc1ccc(S(N)(=O)=O)cc1C(C)=O | 203 to 206
32 | Cc1cc(Cl)ccc1-c1nn(C(C)(C)C(=O)N(C)C)cc1C | 99 to 100
33 | COC1(C=Cc2ccc(C=O)cc2)OOCCOO1 | 95 to 97
34 | CN(C)C(=O)CC(=O)c1ccc(C(=O)CC(=O)C(C)(C)C)cc1 | 159 to 160
35 | O=C(O)CNC(=O)C(c1ccccc1)c1ccccc1 | 113 to 115
36 | COc1cc(I)c(O)c(C=O)c1 | 103 to 105
37 | CC1(C)C=Cc2c(c3ccccc3n(Cc3ccccc3)c2=O)O1 | 91 to 92
38 | CC1CC=C(c2nnn(C)n2)CN1C (configuration not stated) | 93 to 95
39 | CCC[C@@H]([C@@H](CC(C)C)C(=O)N[C@@H](CCCNCN=N[N+](=O)[O-])C(=O)Nc1nccs1)N(O)C=O | 130 to 136
40 | CN(C)c1ccc(C(=O)OC2=C([C@H]3CC[C@H](c4ccc(Cl)cc4)CC3)C(=O)c3ccccc3C2=O)cc1 | 117 to 121

Row | Structure (SMILES) | melting point [°C]
41 | CC(=O)Nc1nc(C(F)(F)F)ns1 | 178
42 | CNC(=O)NC(=O)C(CC1CCCC1)c1ccc(S(C)(=O)=O)c(C#N)c1 (configuration not stated) | 237 to 239
43 | CC(=O)NC[C@H]1CN(c2ccc3c(c2)CS(=O)(=O)CC3)C(=O)O1 | 177 to 179
44 | Nc1nc[nH]c(=O)c1O | > 300
45 | CC(C)(C)c1coc(N)c1C#N | 86
46 | CS(=O)(=O)N1CCC(NC(=O)Nc2ccc(OC(F)(F)F)cc2)CC1 | 233 to 234
47 | CC1OC(N2CC(C)(I)C(=O)NC2=O)CC1O[Si](c1ccccc1)(c1ccccc1)C(C)(C)C (configuration not stated) | 142
48 | CC[C@H](C)[C@H](NC(=O)Nc1ccccc1C(F)(F)F)C(=O)N[C@H](CO)Cc1c[nH]c2ccccc12 | 232 to 234
49 | O=C(c1cc2c3ccccc3n(Cc3ccccc3)c2s1)N1CCOCC1 | 199 to 201
50 | CN1CCN(c2ccc(Nc3ncc4ccc(-c5ccccc5OCC(=O)OC(C)(C)C)n4n3)cc2)CC1 | 193 to 195
51 | CNC(=O)c1ccc(N2CCC(OC3CCN(C4CCC4)CC3)CC2)cn1 | 110
52 | CCOC(=O)C(C)(C)c1cn2nc(CCCCN3CCN(C(c4ccccc4)c4ccccc4)CC3)ccc2n1 | 105 to 106
53 | CCCCCCCCCCCCCCCCCC(=S)SCC(C)C(=O)N1CCCC1C(=O)O (configuration not stated) | 50 to 51
54 | COC(=O)c1cc(S(C)(=O)=O)ccc1OCc1ccccn1 | 189 to 192
55 | C/C=C/C(=O)NC(=O)OC(C)(C)C | 138 to 139
56 | CC(C)Oc1n[nH]cc1C(=O)NCc1ccc(Cl)cc1Cl | 185 to 186
57 | CCCNC(=O)C(C)=Cc1ccc2c(c1)c(Cc1ccc(C(=O)NS(=O)(=O)c3ccccc3C)cc1OC)cn2CC(=O)N(C)C | 230 to 231
58 | CSc1nn2c(N3CCN(C)CC3)cc(C)nc2c1S(=O)(=O)c1ccccc1 | 209 to 210
59 | CCOC(=O)c1cccc(N(CC(=O)OC(C)(C)C)C(=O)CNC(=O)Nc2cccc(C)c2)c1 | 71
60 | CC(=O)N1C(=O)C2(COc3cc4c(cc32)OCCO4)c2ccccc21 (configuration not stated) | 236 to 238

Second part, the compound after the results:

Row | melting point [°C] | Structure (SMILES)
61 | 174 to 175 | CCCC(=O)Nc1ccc(-c2ccncc2)cc1
62 | 96.5 to 101 | CC(C)OC(=O)N1CCC(c2nc3cc(-c4ccc(S(C)(=O)=O)cc4F)ccc3o2)CC1
63 | 87 to 88 | COc1cccc(S(=O)(=O)c2ccc(C)nc2Nc2c(C)cc(C)cc2C)c1
64 | 184 | Cc1ccc(S(=O)(=O)Nc2cc(C)cc([N+](=O)[O-])c2N)cc1
65 | 230 to 231 | CC(C)(O)c1cccc(-c2ccc3nc(-c4ccc(Cl)cc4)cn3c2)c1Cl
66 | 213 to 216 | Cc1nc(-n2c(=O)ccc3cc(OCc4ccccc4)ccc32)sc1C(=O)NCc1ccccc1
67 | 139 to 141 | Cn1nc(-c2c(F)cccc2Cl)nc1-c1ccc(Oc2ccc(C(F)(F)F)cn2)cc1Cl
68 | 75.5 to 76.5 | CC(C)Oc1ccc(CCCO)c(OCc2ccc(Cl)cc2Cl)c1
69 | 144 to 145 | COC(=O)c1ccc2cc(OC)c(OC)cc2c1O
70 | 127 to 129 | CC(COc1ccc2c(c1)C(=O)NC(C)(C)O2)NCc1ccccc1 (configuration not stated)
71 | 117 to 119 | CC(C)n1nc(-c2c(-c3ccccc3)nn3ccc(OCC(=O)NCCN(C)C)cc23)ccc1=O
72 | 66 | CCOC(=O)[C@@H]1O[C@@H]1c1ccc(C)cc1
73 | 228 to 270 | O=c1[nH]c(-c2ccc(CCN3CCN(c4cccc5cc(F)ccc45)CC3)cc2)cs1
74 | 118 to 120 | CCc1ccc(OCCCN2CCC(C(O)(c3ccc(F)cc3)c3ccc(F)cc3)CC2)c(OC)c1
75 | 168 to 169 | O=c1c(Cl)c(OCc2ccc(Cl)cc2Cl)cnn1-c1ccc(Cl)cc1
76 | 167 to 168 | CCc1nnc(CCc2ccc(NC(=O)/C=C/c3cnn(C)c3-c3ccc(F)cc3)cc2)o1
77 | 183 to 184 | Cc1c(N)cccc1-c1ccnc(Nc2ccc(C(=O)N3CCOCC3)cc2)n1
78 | 188 to 190 | Cc1ccc2[nH]c3c(cc(-c4ccccc4Nc4ccccc4)c(=O)n3C)c2c1
79 | 86 to 88 | O=[N+]([O-])c1ccc(OCc2ccc(Cl)cc2)cc1F

Row | melting point [°C] | Structure (SMILES)
80 | 88 to 90 | COC(=O)C(Oc1ccc(OCc2ccccc2)cc1)c1ccc(Oc2ccc(Cl)cc2)cc1 (configuration not stated)
81 | 282 to 283 | Nc1ncnc2[nH]c(Br)c(-c3ccc(Oc4ccccc4)cc3)c12
82 | 186 to 188 | CC1(C)Oc2ccc(C#N)cc2[C@@H](NC(=NC#N)Oc2ccccc2)[C@@H]1O (relative stereo)
83 | 141 to 142 | COc1ccc(-c2cc3ccc(C#N)cc3o2)cc1
84 | 228 to 230 | CCc1nnc(-c2ccc(-c3ccccc3)cc2)n1-c1cccc2cnccc12
85 | 215 to 217 | Oc1ccc(O)c(-c2noc3cc(O)ccc23)c1
86 | 111 to 112 | COc1cc(COc2nn(-c3ccccc3)cc2/C=C\c2csc(C)n2)ccc1OCc1nc(-c2ccco2)oc1C
87 | > 250 | O=C1CC(c2cccs2)=Nc2ccc(-c3ccc(=O)[nH]c3)cc2N1
88 | 110 to 111 | O=Cc1ccc(OCCCCCCOc2ccc(C=O)cc2)cc1
89 | 96 to 100 | O=C(O)CCc1cc2cc(Cl)ccc2n1S(=O)(=O)c1ccc2ncsc2c1
90 | 54 to 56 | CCOC(=O)NCCOc1ccc(Oc2cc(F)cc(F)c2)cc1
91 | 269 to 270 | Cc1nc2ncc(C(=O)NCc3ccc(Cl)cc3)c(O)c2cc1Br
92 | 180 to 182 | N#Cc1c(N2CCCCC2)cc(-c2cccc3ccccc23)c2c1-c1ccccc1C2=O
93 | 279 | COc1ccc(N=Nc2ccc(O)c(C(=O)Nc3ccc4cn[nH]c4c3)c2)cc1
94 | 154 | Nc1ncc(-c2ccccc2COc2ccccc2)s1
95 | 119 to 120 | OCc1ccc(-c2cccnc2)o1
96 | 137 to 138 | CCOC(=O)CCCCCOc1ccc(C(=O)Nc2ccccc2Sc2ccccc2-c2nnn[nH]2)cc1
97 | 222 to 223 | CCCNc1nnc(Cc2c(Cl)cncc2Cl)c2ccc(OC)cc12

— a melting point compilation (Tetko et al.; mined from patent text by program, amines drawn as free bases though some values may be those of a salt)
